By Ki is commonly meant the equilibrium dissociation constant of an inhibitor or competing ligand from its target.

Each structure is given as a SMILES string.

The values below come from patent US9226916B2, “Pyrrolidine derivatives” (HOFFMANN-LA ROCHE INC., priority 2009, dated 2016).

One assay has as its target T1, recombinant human NK3 receptor (Homo sapiens, UniProt P29371).
T1 construct: expressed in transfected cells; host or cells: HEK293 cells, transient expression; membranes
T1 sequence (P29371 1-465): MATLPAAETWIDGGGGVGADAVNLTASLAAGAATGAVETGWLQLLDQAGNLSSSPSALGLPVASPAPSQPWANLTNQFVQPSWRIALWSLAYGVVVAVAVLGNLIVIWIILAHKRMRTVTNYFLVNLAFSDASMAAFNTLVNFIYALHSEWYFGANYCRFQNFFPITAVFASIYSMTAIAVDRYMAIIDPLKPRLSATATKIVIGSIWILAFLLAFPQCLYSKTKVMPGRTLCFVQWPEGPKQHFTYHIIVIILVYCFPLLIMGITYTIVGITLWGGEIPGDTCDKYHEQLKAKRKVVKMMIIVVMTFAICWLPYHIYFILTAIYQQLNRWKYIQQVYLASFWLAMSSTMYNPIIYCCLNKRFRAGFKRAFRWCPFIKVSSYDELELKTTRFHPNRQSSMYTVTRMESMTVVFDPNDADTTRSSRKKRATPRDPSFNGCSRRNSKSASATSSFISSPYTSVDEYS
Put plainly: [3H]SR142801 competition binding assay.
Conditions: not given
Consider `CN(C(=O)Oc1ccc(F)cc1)[C@@H]1CN(C(=O)C2CCN(C(=O)OC(C)(C)C)CC2)C[C@H]1c1ccc(Cl)cc1` [Example 133, 4-{(3R,4S)-3-(4-Chloro-phenyl)-4-[(4-fluoro-phenoxycarbonyl)-methyl-amino]-pyrrolidine-1-carbonyl}-piperidine-1-carboxylic acid tert-butyl ester], for which the Ki came to 3 nM.

Regarding `CN(C(=O)Oc1ccccc1Cl)[C@@H]1CN(C(=O)C2CCN(c3ccc(C#N)cn3)CC2)C[C@H]1c1ccc(Cl)cc1` [Example 213, [(3S,4R)-4-(4-Chloro-phenyl)-1-(5′-cyano-3,4,5,6-tetrahydro-2H-[1,2′]bipyridinyl-4-carbonyl)-pyrrolidin-3-yl]-methyl-carbamic acid 2-chloro-phenyl ester], the Ki stood at 7.2 nM.

With `CN(C(=O)Oc1ccc(F)cc1)[C@@H]1CN(C(=O)C2CCOCC2)C[C@H]1c1ccc(Cl)c(Cl)c1` [Example 51, [(3S,4R)-4-(3,4-Dichloro-phenyl)-1-(tetrahydro-pyran-4-carbonyl)-pyrrolidin-3-yl]-methyl-carbamic acid 4-fluoro-phenyl ester], the Ki is 1.8 nM.

As for `CN(C(=O)OCCC(C)(C)C)[C@H]1CN(C(=O)C2CCN(C(=O)C3(C)CC3)CC2)C[C@@H]1c1ccc(Cl)c(Cl)c1` (racemic) [Example 30, rac-{(3R,4S)-4-(3,4-Dichloro-phenyl)-1-[1-(1-methyl-cyclopropanecarbonyl)-piperidine-4-carbonyl]-pyrrolidin-3-yl}-methyl-carbamic acid 3,3-dimethyl-butyl ester], the Ki worked out at 10.3 nM.

For `CN(C(=O)Oc1ccc(Cl)cc1)[C@H]1CN(C(=O)C2CCN(CC3CC3)CC2)C[C@@H]1c1ccc(Cl)c(Cl)c1` (racemic) [Example 10, rac-[(3R,4S)-1-(1-Cyclopropylmethyl-piperidine-4-carbonyl)-4-(3,4-dichloro-phenyl)-pyrrolidin-3-yl]-methyl-carbamic acid 4-chloro-phenyl ester], the Ki was determined as 1.5 nM.

As to `CC1(C(=O)N2CCC(C(=O)N3C[C@H](NC(=O)Oc4ccc(F)cc4)[C@@H](c4ccc(Cl)c(Cl)c4)C3)CC2)CC1` (racemic) [Example 43, rac-{(3R,4S)-4-(3,4-Dichloro-phenyl)-1-[1-(1-methyl-cyclopropanecarbonyl)-piperidine-4-carbonyl]-pyrrolidin-3-yl}-carbamic acid 4-fluoro-phenyl ester], the inhibition constant (Ki) was 3.4 nM.

On to `CN(C(=O)Oc1ccc(F)cc1)[C@H]1CN(C(=O)C2CCN(C(=O)C3(C)CC3)CC2)C[C@@H]1c1ccc(Cl)c(Cl)c1` [Example 5, {(3R,4S)-4-(3,4-Dichloro-phenyl)-1-[1-(1-methyl-cyclopropanecarbonyl)-piperidine-4-carbonyl]-pyrrolidin-3-yl}-methyl-carbamic acid 4-fluoro-phenyl ester], for which the inhibition constant (Ki) is 56.2 nM.

Regarding `CN(C(=O)Oc1ccc(F)cc1)[C@@H]1CN(C(=O)[C@H]2CC[C@H](O)CC2)C[C@H]1c1ccc(Cl)cc1` [Example 89, [(3S,4R)-4-(4-Chloro-phenyl)-1-(4-hydroxy-cyclohexanecarbonyl)-pyrrolidin-3-yl]-methyl-carbamic acid 4-fluoro-phenyl ester], the inhibitory constant (Ki) came out at 20.2 nM.

On to `CN(C(=O)Oc1ccc(F)cc1)[C@@H]1CN(C(=O)[C@H]2CC[C@@H](O)CC2)C[C@H]1c1ccc(Cl)c(Cl)c1` [Example 60, [(3S,4R)-4-(3,4-Dichloro-phenyl)-1-(cis-4-hydroxy-cyclohexanecarbonyl)-pyrrolidin-3-yl]-methyl-carbamic acid 4-fluoro-phenyl ester], for which the Ki came out at 1.7 nM.

For `CN(C(=O)Oc1ccc(F)cc1)[C@H]1CN(C(=O)C2CCN(C(=O)C3(C)CC3)CC2)C[C@@H]1c1ccc(Cl)cc1` (racemic) [Example 26, rac-{(3R,4S)-4-(4-Chloro-phenyl)-1-[1-(1-methyl-cyclopropanecarbonyl)-piperidine-4-carbonyl]-pyrrolidin-3-yl}-methyl-carbamic acid 4-fluoro-phenyl ester], the inhibitory constant (Ki) turned out to be 2.9 nM.

With `CN(C(=O)Oc1ccc(F)cc1)[C@@H]1CN(C(=O)C2CCN(C(=O)C3CC(F)C3)CC2)C[C@H]1c1ccc(Cl)c(Cl)c1` (stereo partly drawn) [Example 267, {(3S,4R)-4-(3,4-Dichloro-phenyl)-1-[1-(3-fluoro-cyclobutanecarbonyl)-piperidine-4-carbonyl]-pyrrolidin-3-yl}-methyl-carbamic acid 4-fluoro-phenyl ester], the inhibitory constant (Ki) is 0.7 nM.

For the molecule `CN(C(=O)Oc1ccc(C#N)cc1)[C@@H]1CN(C(=O)C2CCN(c3ccc(C#N)cn3)CC2)C[C@H]1c1ccc(Cl)cc1` [Example 228, [(3S,4R)-4-(4-Chloro-phenyl)-1-(5′-cyano-3,4,5,6-tetrahydro-2H-[1,2′]bipyridinyl-4-carbonyl)-pyrrolidin-3-yl]-methyl-carbamic acid 4-cyano-phenyl ester], the Ki amounted to 0.8 nM.

Consider `CN(C(=O)OCCC(C)(C)O)[C@H]1CN(C(=O)C2CCN(C(=O)C3(C)CC3)CC2)C[C@@H]1c1ccc(Cl)c(Cl)c1` (racemic) [Example 98, rac-{(3R,4S)-4-(3,4-Dichloro-phenyl)-1-[1-(1-methyl-cyclopropanecarbonyl)-piperidine-4-carbonyl]-pyrrolidin-3-yl}-methyl-carbamic acid 3-hydroxy-3-methyl-butyl ester], for which the Ki is 48 nM.

As to `CN(C(=O)Oc1ccc(F)cc1)[C@@H]1CN(C(=O)C2CCN(C(=O)C3(C(F)(F)F)CCC3)CC2)C[C@H]1c1ccc(F)cc1` [Example 289, {(3S,4R)-4-(4-Fluoro-phenyl)-1-[1-(1-trifluoromethyl-cyclobutanecarbonyl)-piperidine-4-carbonyl]-pyrrolidin-3-yl}-methyl-carbamic acid 4-fluoro-phenyl ester], the Ki was 11 nM.

Regarding `CN(C(=O)Oc1ccc(F)cc1)[C@@H]1CN(C(=O)C2CCN(C(=O)C3(C(F)(F)F)CC3)CC2)C[C@H]1c1ccc(Cl)c(Cl)c1` [Example 273, {(3S,4R)-4-(3,4-Dichloro-phenyl)-1-[1-(1-trifluoromethyl-cyclopropanecarbonyl)-piperidine-4-carbonyl]-pyrrolidin-3-yl}-methyl-carbamic acid 4-fluoro-phenyl ester], the inhibitory constant (Ki) amounted to 0.4 nM.

With `CN(C(=O)Oc1ccc(F)cc1)[C@@H]1CN(C(=O)C2CCN(c3ccc(Cl)cn3)CC2)C[C@H]1c1ccc(Cl)cc1` [Example 199, [(3S,4R)-4-(4-Chloro-phenyl)-1-(5′-chloro-3,4,5,6-tetrahydro-2H-[1,2′]bipyridinyl-4-carbonyl)-pyrrolidin-3-yl]-methyl-carbamic acid 4-fluoro-phenyl ester], the Ki came to 0.9 nM.

With `CN(C(=O)Oc1ccc(F)cc1)[C@@H]1CN(C(=O)C2CCOCC2)C[C@H]1c1ccc(Cl)cc1` [Example 90, [(3S,4R)-4-(4-Chloro-phenyl)-1-(tetrahydro-pyran-4-carbonyl)-pyrrolidin-3-yl]-methyl-carbamic acid 4-fluoro-phenyl ester], the inhibitory constant (Ki) was 7.9 nM.

As for `CN(C(=O)Oc1ccc(F)cc1)[C@@H]1CN(C(=O)C2CCN(c3ccc(C#N)cn3)CC2)C[C@H]1c1ccc(F)cc1` [Example 131, [(3S,4R)-1-(5′-Cyano-3,4,5,6-tetrahydro-2H-[1,2′]bipyridinyl-4-carbonyl)-4-(4-fluoro-phenyl)-pyrrolidin-3-yl]-methyl-carbamic acid 4-fluoro-phenyl ester], the Ki is 1 nM.

Consider `CN(C(=O)Oc1ccc(F)cc1)[C@@H]1CN(C(=O)C2CCN(c3ccc(F)cn3)CC2)C[C@H]1c1ccc(Cl)c(F)c1` [Example 311, [(3S,4R)-4-(4-Chloro-3-fluoro-phenyl)-1-(5′-fluoro-3,4,5,6-tetrahydro-2H-[1,2′]bipyridinyl-4-carbonyl)-pyrrolidin-3-yl]-methyl-carbamic acid 4-fluoro-phenyl ester], for which the inhibition constant (Ki) was found to be 0.9 nM.

The same assay, now with this note: hNK-3 receptor affinity; membranes from HEK293 cells transiently expressing recombinant human NK3 receptor; [3H]SR142801; Cheng-Prussoff; read-out: Data Ki.
Consider `CN(C(=O)OCC1(C)CC1)[C@H]1CN(C(=O)C2CCN(C(=O)C3(C)CC3)CC2)C[C@@H]1c1ccc(Cl)c(Cl)c1` (racemic) [Example 91, rac-{(3R,4S)-4-(3,4-Dichloro-phenyl)-1-[1-(1-methyl-cyclopropanecarbonyl)-piperidine-4-carbonyl]-pyrrolidin-3-yl}-methyl-carbamic acid 1-methyl-cyclopropylmethyl ester], for which the Ki was 4.4 nM.

For the molecule `CN(C(=O)OCC1CCOCC1)[C@@H]1CN(C(=O)C2CCN(c3ccc(C#N)cn3)CC2)C[C@H]1c1ccc(Cl)cc1` [Example 231, [(3S,4R)-4-(4-Chloro-phenyl)-1-(5′-cyano-3,4,5,6-tetrahydro-2H-[1,2′]bipyridinyl-4-carbonyl)-pyrrolidin-3-yl]-methyl-carbamic acid tetrahydro-pyran-4-ylmethyl ester], the Ki is 5.7 nM.

Consider `CN(C(=O)OCCCF)[C@@H]1CN(C(=O)C2CCN(c3ccc(C#N)cn3)CC2)C[C@H]1c1ccc(Cl)cc1` [Example 214, [(3S,4R)-4-(4-Chloro-phenyl)-1-(5′-cyano-3,4,5,6-tetrahydro-2H-[1,2′]bipyridinyl-4-carbonyl)-pyrrolidin-3-yl]-methyl-carbamic acid 3-fluoro-propyl ester], for which the Ki came out at 94.2 nM.

Consider `CN(C(=O)OCCC1CC1)[C@H]1CN(C(=O)C2CCN(C(=O)C3(C)CC3)CC2)C[C@@H]1c1ccc(Cl)c(Cl)c1` [Example 35, {(3R,4S)-4-(3,4-Dichloro-phenyl)-1-[1-(1-methyl-cyclopropanecarbonyl)-piperidine-4-arbonyl]-pyrrolidin-3-yl}-methyl-carbamic acid 2-cyclopropyl-ethyl ester], for which the inhibition constant Ki is 81.1 nM.
